Test results: US8916702B2 (priority 2012, dated 2014)
Read-outs that look alike come from different tables or passages of the source.

System: HCV pseudoparticles (genotype 1a HCV E1 and E2 envelope, H77C isolate)
Experiment: microbe, parasite or virus in culture
Type: cell-based
Conditions: Hepatitis C virus
[1] = Huh-7, 48 h, read-out: Activity (EC50 class), HCV pseudoparticle infection of Huh7 cells, luciferase 2 days after infection, EC50 expressed as class A/B
[2] = Huh-7, 48 h, HCV pseudoparticles, Huh7 cells, luciferase 2 days after infection, average of duplicates
[3] = Huh-7, 48 h, read-out: Activity (EC50 class), HCV pseudoparticles, Huh7 cells, luciferase 2 days after infection, average of duplicates
[4] = Huh-7, read-out: Activity (EC50 class), HCV pseudoparticles (genotype 1a, H77C) in Huh7 cells, EC50 expressed as class A/B
[5] = Huh-7, 48 h, HCV pseudoparticle infection of Huh7 cells, luciferase 2 days after infection, average of duplicates

Structure (SMILES) | EC50 [1] [nM] | EC50 [4] [nM] | also measured
COC(=O)[C@H](CCNC(=O)C(=O)N[C@H]1C[C@@H]2C[C@@H]([C@@H]1C)C2(C)C)NC(=O)c1ccc(Nc2nc(NC3(c4ccc(Cl)cc4)CC3)nc(OCC(F)(F)F)n2)cc1 [Compound 1110] | 0.01 to 10 |  | 
COc1ccc(NC(=O)C(=O)NCC(C)(C)CNC(=O)c2ccc(Nc3nc(NC4(c5ccc(Cl)cc5)CC4)nc(OCc4ccc(C(C)C)cc4)n3)cc2F)cc1 [Compound 3828] |  |  | EC50 [2]: 0.35 nM; EC50 [3]: 0.01 to 10 nM
COC(=O)[C@H](CNC(=O)C(=O)Nc1cccc(S(=O)(=O)N2CCCCC2)c1)NC(=O)c1ccc(Nc2nc(NC3(c4ccc(Cl)cc4)CC3)nc(OCC(F)(F)F)n2)cc1 [Compound 3717] |  |  | EC50 [3]: 0.01 to 10 nM
COC(=O)[C@H](CCNC(=O)C(=O)Nc1ccc(-c2ccc(C)cc2)cc1)NC(=O)c1ccc(Nc2nc(NC3(c4ccc(Cl)cc4)CC3)nc(OCC(F)(F)F)n2)cc1 [Compound 3305] |  | 0.01 to 10 | 
CC(C)(CNC(=O)C(=O)Nc1ccc(C#N)cc1)CNC(=O)c1ccc(Nc2nc(NC3(c4ccc(Cl)cc4)CC3)nc(OCC(F)(F)F)n2)cc1F [Compound 3516] |  | 0.01 to 10 | 
C[C@@H](NC(=O)C(=O)NCC[C@H](NC(=O)c1ccc(Nc2nc(NC3(c4ccc(Cl)cc4)CC3)nc(OCC(F)(F)F)n2)cc1)C(=O)O)C1CC1 [Compound 1420] | 0.01 to 10 |  | 
Cc1ccc(NC(=O)C(=O)NCCNC(=O)c2ccc(Nc3nc(NC4(c5ccc(Cl)cc5)CC4)nc(OCC(F)(F)F)n3)cc2)cc1 [Compound 3371] |  | 0.01 to 10 | 
O=C(NCC[C@H](NC(=O)c1ccc(Nc2nc(NC3(c4ccc(Cl)cc4)CC3)nc(OCC(F)(F)F)n2)cc1)C(=O)O)C(=O)NCC1CC1c1cccc2c1OCO2 (stereo partly shown) [Compound 1446] | 0.01 to 10 |  | 
O=C(NC[C@H](NC(=O)c1ccc(Nc2nc(NC3(c4ccc(Cl)cc4)CC3)nc(OCC(F)(F)F)n2)cc1)C(=O)O)C(=O)Nc1ccc(Cn2cncn2)cc1 [Compound 3267] |  | 0.01 to 10 | 
COC(=O)[C@H](CNC(=O)C(=O)Nc1ccc(OC(F)(F)F)cc1)NC(=O)c1ccc(Nc2nc(NC3(c4ccc(Cl)cc4)CC3)nc(OCC(F)(F)F)n2)cc1 [Compound 3214] |  | 0.01 to 10 | 
CC1CCC(NC(=O)C(=O)NC[C@H](NC(=O)c2ccc(Nc3nc(NC4(c5ccc(Cl)cc5)CC4)nc(OCC(F)(F)F)n3)cc2)C(=O)O)CC1 (stereo partly shown) [Compound 1092] | 0.01 to 10 |  | 
Cn1cc(NC(=O)C(=O)NC[C@H](NC(=O)c2ccc(Nc3nc(NC4(c5ccc(Cl)cc5)CC4)nc(OCC(F)(F)F)n3)cc2)C(=O)O)cn1 [Compound 1356] | 0.01 to 10 |  | 
CC(C)(CNC(=O)C(=O)Nc1ccccc1-c1cc2ccccc2[nH]1)CNC(=O)c1ccc(Nc2nc(NC3(c4ccc(Cl)cc4)CC3)nc(OCC(F)(F)F)n2)cc1 [Compound 3052] |  | 0.01 to 10 | 
CC(=O)c1ccc(NC(=O)C(=O)NCC(C)(C)CNC(=O)c2ccc(Nc3nc(NC4(c5ccc(Cl)cc5)CC4)nc(OCC(F)(F)F)n3)cc2)cc1 [Compound 1603] | 0.01 to 10 |  | EC50 [5]: 0.04 nM
O=C(NCC[C@H](NC(=O)c1ccc(Nc2nc(NC3(c4ccc(Cl)cc4)CC3)nc(OCC(F)(F)F)n2)cc1)C(=O)O)C(=O)Nc1ccc(Oc2cccnc2)cc1 [Compound 3545] |  | 0.01 to 10 | 
CC(C)(C)OC(=O)NC1CCCC(NC(=O)C(=O)NC[C@H](NC(=O)c2ccc(Nc3nc(NC4(c5ccc(Cl)cc5)CC4)nc(OCC(F)(F)F)n3)cc2)C(=O)O)C1 (stereo partly shown) [Compound 1083] | 0.01 to 10 |  | EC50 [5]: 1.78 nM
O=C(NCC1CCCCC1)C(=O)NC[C@@H](NC(=O)c1ccc(Nc2nc(NC3(c4ccc(Cl)cc4)CC3)nc(OCC(F)(F)F)n2)cc1)C(=O)O [Compound 1039] | 0.01 to 10 |  | 
Cc1ccc(NC(=O)C(=O)NCC2(CNC(=O)c3ccc(Nc4nc(NC5(c6ccc(Cl)cc6)CC5)nc(OCC(F)(F)F)n4)cc3)CC2)cc1 [Compound 1600] | 0.01 to 10 |  | 
NC(=O)C(=O)NCCCCNC(=O)c1ccc(Nc2nc(NC3(c4ccc(Cl)cc4)CC3)nc(OCC(F)(F)F)n2)cc1 [Compound 3391] |  | 0.01 to 10 | 
COc1cccc(-c2ccc(NC(=O)C(=O)NCC(C)(C)CNC(=O)c3ccc(Nc4nc(NC5(c6ccc(Cl)cc6)CC5)nc(OCC(F)(F)F)n4)cc3F)cc2)c1 [Compound 3563] |  | 0.01 to 10 | 
COC(=O)[C@H](CCNC(=O)C(=O)NNc1ccccc1)NC(=O)c1ccc(Nc2nc(NC3(c4ccc(Cl)cc4)CC3)nc(OCC(F)(F)F)n2)cc1 [Compound 1220] | 0.01 to 10 |  | 
CCOC(=O)[C@H](CCNC(=O)C(=O)NCC1CC1)NC(=O)c1ccc(Nc2nc(NC3(c4ccc(Cl)cc4)CC3)nc(OCC(F)(F)F)n2)cc1 [Compound 1369] | 0.01 to 10 |  | 
COc1ccc(-c2ccccc2NC(=O)C(=O)NCC(C)(C)CNC(=O)c2ccc(Nc3nc(NC4(c5ccc(Cl)cc5)CC4)nc(OCC(F)(F)F)n3)cc2)cc1 [Compound 3065] |  | 0.01 to 10 | 

Structure (SMILES) | EC50 [1] [nM] | EC50 [4] [nM] | also measured
COC(=O)[C@H](CCNC(=O)C(=O)Nc1cccc(-n2cnnc2)c1)NC(=O)c1ccc(Nc2nc(NC3(c4ccc(Cl)cc4)CC3)nc(OCC(F)(F)F)n2)cc1 [Compound 3605] |  |  | EC50 [3]: 0.01 to 10 nM
O=C(NC/C(=N/C(=O)c1ccc(Nc2nc(NC3(c4ccc(Cl)cc4)CC3)nc(OCC(F)(F)F)n2)cc1)C(=O)O)C(=O)Nc1ccc(C(=O)c2ccccc2)cc1 [Compound 3152] |  | 0.01 to 10 | 
COC(=O)[C@H](CNC(=O)C(=O)Nc1ccc(Oc2cccnc2)nc1)NC(=O)c1ccc(Nc2nc(NC3(c4ccc(Cl)cc4)CC3)nc(OCC(F)(F)F)n2)cc1 [Compound 3699] |  |  | EC50 [3]: 0.01 to 10 nM
Cc1ccc(NC(=O)C(=O)NCC[C@H](NC(=O)c2ccc(Nc3nc(NC4(c5ccc(Cl)cc5)CC4)nc(OCC(F)(F)F)n3)cc2)C(=O)O)cn1 [Compound 3636] |  |  | EC50 [3]: 0.01 to 10 nM
COc1ncccc1NC(=O)C(=O)NCC(C)(C)CNC(=O)c1ccc(Nc2nc(NC3(c4ccc(Cl)cc4)CC3)nc(OCC(F)(F)F)n2)cc1 [Compound 3366] |  | 0.01 to 10 | EC50 (Huh-7, 48 h, HCV pseudoparticles (genotype 1a, H77C) in Huh7 cells, average of duplicate, luciferase 2 days after infection): 0.14 nM
CC(C)(CNC(=O)C(=O)Nc1nc2cnccc2s1)CNC(=O)c1ccc(Nc2nc(NC3(c4ccc(Cl)cc4)CC3)nc(OCC(F)(F)F)n2)cc1 [Compound 3808] |  |  | EC50 [3]: 0.01 to 10 nM
CC(C)(CNC(=O)C(=O)Nc1ccc2ncsc2c1)CNC(=O)c1ccc(Nc2nc(NC3(c4ccc(Cl)cc4)CC3)nc(OCC(F)(F)F)n2)cc1F [Compound 3566] |  | 0.01 to 10 | 
COC(=O)[C@H](CCNC(=O)C(=O)NCC(C)c1ccccc1)NC(=O)c1ccc(Nc2nc(NC3(c4ccc(Cl)cc4)CC3)nc(OCC(F)(F)F)n2)cc1 (stereo partly shown) [Compound 1307] | 0.01 to 10 |  | EC50 [5]: 0.38 nM
CC(C)(CNC(=O)C(=O)Nc1ccc2cc[nH]c2c1)CNC(=O)c1ccc(Nc2nc(NC3(c4ccc(Cl)cc4)CC3)nc(OCC(F)(F)F)n2)cc1 [Compound 3337] |  | 0.01 to 10 | 
Cc1ccc(C2CC2CNC(=O)C(=O)NCC[C@H](NC(=O)c2ccc(Nc3nc(NC4(c5ccc(Cl)cc5)CC4)nc(OCC(F)(F)F)n3)cc2)C(=O)O)cc1 (stereo partly shown) [Compound 1444] | 0.01 to 10 |  | 
COc1ccc2sc(NC(=O)C(=O)NCC(C)(C)CNC(=O)c3ccc(Nc4nc(NC5(c6ccc(Cl)cc6)CC5)nc(OCC(F)(F)F)n4)cc3)nc2c1 [Compound 3806] |  |  | EC50 [3]: 0.01 to 10 nM
CC(C)c1cccc(NC(=O)C(=O)NC[C@H](NC(=O)c2ccc(Nc3nc(NC4(c5ccc(Cl)cc5)CC4)nc(OCC(F)(F)F)n3)cc2)C(=O)O)c1 [Compound 3758] |  |  | EC50 [2]: 0.54 nM; EC50 [3]: 0.01 to 10 nM
O=C(NCC1CCOCC1)C(=O)NC[C@H](NC(=O)c1ccc(Nc2nc(NC3(c4ccc(Cl)cc4)CC3)nc(OCC(F)(F)F)n2)cc1)C(=O)O [Compound 1477] | 0.01 to 10 |  | 
Cn1ccc(NC(=O)C(=O)NCC(C)(C)CNC(=O)c2ccc(Nc3nc(NC4(c5ccc(Cl)cc5)CC4)nc(OCC(F)(F)F)n3)cc2)n1 [Compound 3023] |  | 0.01 to 10 | 
COCc1ccc(NC(=O)C(=O)NC[C@H](NC(=O)c2ccc(Nc3nc(NC4(c5ccc(Cl)cc5)CC4)nc(OCC(F)(F)F)n3)cc2)C(=O)O)cc1 [Compound 3288] |  | 0.01 to 10 | 
CCC(CC)CCNC(=O)c1ccc(NC(=O)C(=O)NC[C@H](NC(=O)c2ccc(Nc3nc(NC4(c5ccc(Cl)cc5)CC4)nc(OCC(F)(F)F)n3)cc2)C(=O)OC)cc1 [Compound 3089] |  | 0.01 to 10 | 
COC(=O)[C@H](CNC(=O)C(=O)Nc1ccc(Oc2ccc(C(C)(C)C)cc2)nc1)NC(=O)c1ccc(Nc2nc(NC3(c4ccc(Cl)cc4)CC3)nc(OCC(F)(F)F)n2)cc1 [Compound 3698] |  |  | EC50 [3]: 0.01 to 10 nM
CN1CCCC1CCNC(=O)C(=O)NC[C@H](NC(=O)c1ccc(Nc2nc(NC3(c4ccc(Cl)cc4)CC3)nc(OCC(F)(F)F)n2)cc1)C(=O)O (stereo partly shown) [Compound 1040] | 10 to 1000 |  | 
CC(C)c1ccc(COc2nc(Nc3ccc(C(=O)NCC(C)(C)CNC(=O)C(=O)Nc4ccc(F)cc4F)c(F)c3)nc(NC3(c4ccc(Cl)cc4)CC3)n2)cc1 [Compound 3835, N^1-(3-(4-((4-((1-(4-chlorophenyl)cyclopropyl)amino)-6-((4-isopropylbenzyl)oxy)-1,3,5-triazin-2-yl)amino)-2-fluorobenzamido)-2,2-dimethylpropyl)-N^2-(2,4-difluorophenyl)oxalamide] |  |  | EC50 [3]: 0.01 to 10 nM
O=C(NCC[C@H](NC(=O)c1ccc(Nc2nc(NC3(c4ccc(Cl)cc4)CC3)nc(OCC(F)(F)F)n2)cc1)C(=O)O)C(=O)NCc1c(F)cccc1F [Compound 1190] | 0.01 to 10 |  | 
COC(=O)[C@H](CCNC(=O)C(=O)Nc1cccc(-c2ccc(Cl)cc2)c1)NC(=O)c1ccc(Nc2nc(NC3(c4ccc(Cl)cc4)CC3)nc(OCC(F)(F)F)n2)cc1 [Compound 3599] |  |  | EC50 [3]: 0.01 to 10 nM
Cn1cnnc1-c1cccc(NC(=O)C(=O)NCC[C@H](NC(=O)c2ccc(Nc3nc(NC4(c5ccc(Cl)cc5)CC4)nc(OCC(F)(F)F)n3)cc2)C(=O)O)c1 [Compound 3643] |  |  | EC50 [3]: 10 to 1000 nM
COC(=O)[C@H](CCNC(=O)C(=O)NCC1OCCc2ccccc21)NC(=O)c1ccc(Nc2nc(NC3(c4ccc(Cl)cc4)CC3)nc(OCC(F)(F)F)n2)cc1 (stereo partly shown) [Compound 1320] | 0.01 to 10 |  | 
